The target of assay [1] is T1, Btk (Tyr223) phosphorylation in Ramos cells (Homo sapiens, UniProt Q06187).
T1 construct: endogenous in cells; host or cells: Ramos cells (ATCC)
Description: Western blotting assay for Btk (Example 73). It counts as cell-based. The settings on record: 45 min, 6 μg/mL anti-IgM, read-out: Btk Inhibition. As to the method:
(§1) All cell lines were obtained from the American Type Culture Collection and were maintained at 37° C. with 5% CO2. Ramos cell line was maintained in media supplemented with 10% fetal bovine serum, penicillin (100 units/mL) and streptomycin (100 μg/mL). NK-92 cell line was maintained in media supplemented with 10% fetal bovine serum and 10% horse serum, penicillin (100 units/mL) and streptomycin (100 μg/mL), IL-2 10 ng/mL. Goat F(ab′)2 Anti-Human IgM-UNLB was obtained from SouthernBiotech. IL-2 was obtained from Peprotech.
Ramos cells were treated with compounds at indicated doses for 45 min at room temperature, followed by stimulation of 6 μg/mL of anti-IgM for 30 min, and then lysed. Western blots were performed on the cell lysate using Phospho-Btk (Tyr223), Phospho-Btk (Tyr551), Btk, Phospho-PLCγ2 (Tyr1217), PLCγ2, Phospho-p44/42 MAPK (Erk1/2) (Thr202/Tyr204) and p44/42 MAPK (Erk1/2) antibodies (Cell Signaling Technology). The density of blotting band was acquired using ImageJ software, and the IC50 of Btk (Tyr223) phosphorylation was fitted using a non-linear regression model by GraphPad Prism.

Assay [2] relates to Stat5 phosphorylation in NK-92 cells. Description: Western blotting assay for Stat5. In kind it is cell-based. The settings on record: NK92, 1 hour, IL-2 stimulation, read-out: Stat5 inhibition. As to the method: as §1
NK-92 cells were treated with compounds at the dosed indicated for 1 hour in incubator, followed by the IL-2 stimulation for 15 minutes. Cells were then collected and lysed to prepare the cellular extraction. Western blots were performed on cell lysate using Phospho-Jak3, Jak3, Phospho-Stat5, Stat5 antibodies (Cell Signaling Technology). The intensity of blotting band was acquired using Image Lab (Bio-Rad) software, and the IC50 of target was generated with GraphPad Prism.

Structures are written as SMILES.

T1 sequence (Q06187 whole entry): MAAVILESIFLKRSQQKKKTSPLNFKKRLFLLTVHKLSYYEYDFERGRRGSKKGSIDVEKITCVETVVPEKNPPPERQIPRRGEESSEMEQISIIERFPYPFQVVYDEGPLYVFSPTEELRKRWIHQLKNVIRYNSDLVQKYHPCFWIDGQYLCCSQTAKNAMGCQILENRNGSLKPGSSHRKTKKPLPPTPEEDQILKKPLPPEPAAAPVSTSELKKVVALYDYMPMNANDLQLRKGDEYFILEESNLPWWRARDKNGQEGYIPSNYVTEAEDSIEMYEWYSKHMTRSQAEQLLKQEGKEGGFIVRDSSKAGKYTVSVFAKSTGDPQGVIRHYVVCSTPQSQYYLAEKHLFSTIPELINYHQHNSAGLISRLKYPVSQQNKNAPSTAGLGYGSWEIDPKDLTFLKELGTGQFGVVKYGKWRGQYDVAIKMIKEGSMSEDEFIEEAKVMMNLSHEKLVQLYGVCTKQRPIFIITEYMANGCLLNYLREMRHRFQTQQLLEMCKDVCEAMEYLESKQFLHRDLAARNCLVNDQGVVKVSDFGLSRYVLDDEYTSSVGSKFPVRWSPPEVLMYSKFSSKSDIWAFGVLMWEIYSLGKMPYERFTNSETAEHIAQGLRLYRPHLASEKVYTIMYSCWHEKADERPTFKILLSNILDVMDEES

As for `C=CC(=O)Nc1cccc(Oc2nc(Nc3ccc4c(c3)CCN4CCOC)ncc2OC)c1` [Compound I-34a, N-(3-(5-methoxy-2-(1-(2-methoxyethyl)indolin-5-ylamino)pyrimidin-4-yloxy)phenyl)acrylamide], the figures for the IC50 in assay [1] and in assay [2] were at most 10 nM and at least 400 nM, respectively.
Taken in the same sequence, the figures for `C=CC(=O)Nc1cccc(Oc2nc(Nc3ccc(N(C)CCOC)nc3)ncc2OC)c1` [Compound I-33a, N-(3-(5-methoxy-2-(6-((2-methoxyethyl)(methyl)amino)pyridin-3-ylamino)pyrimidin-4-yloxy)phenyl)acrylamide] were 10 to 100 nM and at least 400 nM.
For the compound `C=CC(=O)Nc1cccc(Oc2nc(Nc3ccc4c(c3)CCN4S(C)(=O)=O)ncc2OC)c1` [Compound I-59a, N-(3-(5-methoxy-2-(1-(methylsulfonyl)indolin-5-ylamino)pyrimidin-4-yloxy)phenyl)acrylamide], in assay [1], the IC50 was at most 10 nM.
As for `C=CC(=O)Nc1cccc(Oc2nc(Nc3ccc(N[C@H]4CCN(CCOC)C4)cc3)nc3[nH]ccc23)c1` [Compound I-40a, (S)—N-(3-(2-(4-(1-(2-methoxyethyl)pyrrolidin-3-ylamino)phenylamino)-7H-pyrrolo[2,3-d]pyrimidin-4-yloxy)phenyl)acrylamide], the IC50 in assay [1] is at most 10 nM; in assay [2] it was at least 400 nM.
Taken in the same sequence, the figures for `C=CC(=O)Nc1cccc(Oc2nc(Nc3ccc(N(C)[C@H]4CCN(CCOC)C4)cc3)nc3[nH]ccc23)c1` [Compound I-49a, (S)—N-(3-(2-(4-((1-(2-methoxyethyl)pyrrolidin-3-yl)(methyl)amino)phenylamino)-7H-pyrrolo[2,3-d]pyrimidin-4-yloxy)phenyl)acrylamide] were at most 10 nM and at least 400 nM.
The corresponding values for `C=CCN(CCOC)c1ccc(Nc2ncc(OC)c(Oc3cccc(NC(=O)C=C)c3)n2)cc1` [Compound I-39a] are 10 to 100 nM and at least 400 nM.
Regarding `C=CC(=O)Nc1cccc(Oc2nc(Nc3ccc(N(C)[C@H]4CCN(S(C)(=O)=O)C4)cc3)ncc2OC)c1` [Compound I-60a, (S)—N-(3-(5-methoxy-2-(4-(methyl(1-(methylsulfonyl)pyrrolidin-3-yl)amino)phenylamino)pyrimidin-4-yloxy)phenyl)acrylamide], in assay [1], the IC50 is at most 10 nM.
Same read-out and setting: in the case of `C=CC(=O)Nc1cccc(Oc2nc(Nc3ccc(N(C)[C@H]4CCN(C(C)=O)C4)cc3)nc3[nH]ccc23)c1` [Compound I-64a, (S)—N-(3-(2-(4-((1-acetylpyrrolidin-3-yl)(methyl)amino)phenylamino)-7H-pyrrolo[2,3-d]pyrimidin-4-yloxy)phenyl)acrylamide] it was at most 10 nM; in that of `C=CC(=O)Nc1cccc(Oc2nc(Nc3ccc(N[C@@H]4CCN(CCF)C4)cc3)ncc2F)c1` [Compound I-19, (R)—N-(3-(5-fluoro-2-(4-(1-(2-fluoroethyl)pyrrolidin-3-ylamino)phenylamino)pyrimidin-4-yloxy)phenyl)acrylamide], at most 10 nM; in that of `C=CC(=O)Nc1cccc(Oc2nc(Nc3cccc4c3CCN4CCOC)ncc2OC)c1` [Compound I-28a, N-(3-(5-methoxy-2-(1-(2-methoxyethyl)indolin-4-ylamino)pyrimidin-4-yloxy)phenyl)acrylamide], 10 to 100 nM.
`C=CC(=O)Nc1cccc(Oc2nc(Nc3ccc(N[C@H]4CCN(C(C)=O)C4)cc3)ncc2OC)c1` [Compound I-66a, (S)—N-(3-(2-(4-((1-acetylpyrrolidin-3-yl)amino)phenylamino)-5-methoxypyrimidin-4-yloxy)phenyl)acrylamide]: in assay [1], the IC50 is at most 10 nM.
Turning to `C=CC(=O)Nc1cccc(Oc2nc(Nc3ccc4c(ccn4CCOC)c3)ncc2OC)c1` [Compound I-45a, N-(3-(5-methoxy-2-(1-(2-methoxyethyl)-1H-indol-5-ylamino)pyrimidin-4-yloxy)phenyl)acrylamide], the IC50 lay in the range of 10 to 100 nM in assay [1] and 200 to 400 nM in assay [2].
As for `C=CC(=O)Nc1cccc(Oc2nc(Nc3ccc(N(C)[C@H]4CCN(S(C)(=O)=O)C4)cc3)nc3[nH]ccc23)c1` [Compound I-63a, (S)—N-(3-(2-(4-(methyl(1-(methylsulfonyl)pyrrolidin-3-yl)amino)phenylamino)-7H-pyrrolo[2,3-d]pyrimidin-4-yloxy)phenyl)acrylamide], in assay [1], the IC50 was at most 10 nM.
Same read-out and setting: in the case of `C=CC(=O)Nc1cccc(Oc2nc(Nc3ccc(N(C)[C@H]4CCN(CCF)C4)cc3)nc3[nH]ccc23)c1` [Compound I-26a, (S)—N-(3-(2-(4-((1-(2-fluoroethyl)pyrrolidin-3-yl)(methyl)amino)phenylamino)-7H-pyrrolo[2,3-d]pyrimidin-4-yloxy)phenyl)acrylamide] it was 10 to 100 nM; in that of `C=CC(=O)Nc1cccc(Oc2nc(Nc3ccc(N[C@H]4CCN(CCF)C4)cc3)nc3[nH]ccc23)c1` [Compound I-27a, (S)—N-(3-(2-(4-(1-(2-fluoroethyl)pyrrolidin-3-ylamino)phenylamino)-7H-pyrrolo[2,3-d]pyrimidin-4-yloxy)phenyl)acrylamide], at most 10 nM; in that of `C=CC(=O)Nc1cccc(Oc2nc(Nc3ccc(N4CCN(C(C)=O)CC4)cc3)nc3[nH]cnc23)c1` [Compound I-68a, N-(3-(2-(4-(4-acetylpiperazin-1-yl)phenylamino)-9H-purin-6-yloxy)phenyl)acrylamide], 10 to 100 nM.
As to `C=CC(=O)Nc1cccc(Oc2nc(Nc3ccc(N(C)[C@@H]4CCN(C(C)=O)C4)cc3)ncc2OC)c1` [Compound I-72a, (R)—N-(3-(2-(4-((1-acetylpyrrolidin-3-yl)(methyl)amino)phenylamino)-5-methoxypyrimidin-4-yloxy)phenyl)acrylamide], the IC50 in assay [1] is at most 10 nM.
With `C=CC(=O)Nc1cccc(Oc2nc(Nc3ccc(N(C)[C@H]4CCN(S(C)(=O)=O)C4)cc3)nc3[nH]cnc23)c1` [Compound I-71a, (S)—N-(3-(2-(4-(methyl(1-(methylsulfonyl)pyrrolidin-3-yl)amino)phenylamino)-9H-purin-6-yloxy)phenyl)acrylamide], the IC50 in assay [1] was at most 10 nM.
The same measure, in the same setting: under `C=CC(=O)Nc1cccc(Oc2nc(Nc3ccc(N[C@H]4CCN(CCOC)C4)cc3)nc3[nH]cnc23)c1` [Compound I-67a, (S)—N-(3-(2-(4-(1-(2-methoxyethyl)pyrrolidin-3-ylamino)phenylamino)-9H-purin-6-yloxy)phenyl)acrylamide] stands 10 to 100 nM.
Same read-out and setting: in the case of `C=CC(=O)Nc1cccc(Oc2nc(Nc3ccc(N[C@H]4CCN(S(C)(=O)=O)C4)cc3)nc3[nH]ccc23)c1` [Compound I-62a, (S)—N-(3-(2-(4-(1-(methylsulfonyl)pyrrolidin-3-ylamino)phenylamino)-7H-pyrrolo[2,3-d]pyrimidin-4-yloxy)phenyl)acrylamide] it was at most 10 nM.
As to `C=CC(=O)Nc1cccc(Oc2nc(Nc3ccc(N4CCN(CCS(C)(=O)=O)CC4)cc3)nc3[nH]cnc23)c1` [Compound I-69a, N-(3-(2-(4-(4-(2-(methylsulfonyl)ethyl)piperazin-1-yl)phenylamino)-9H-purin-6-yloxy)phenyl)acrylamide], the IC50 in assay [1] was in the range of 10 to 100 nM.
Same read-out and setting: in the case of `C=CC(=O)Nc1cccc(Nc2nc(Nc3cccc4c3CCN4CCOC)ncc2OC)c1` [Compound I-29a, N-(3-(5-methoxy-2-(1-(2-methoxyethyl)indolin-4-ylamino)pyrimidin-4-ylamino)phenyl)acrylamide] it was at least 100 nM; in that of `C=CC(=O)Nc1cccc(Oc2nc(Nc3ccc(N4CCN(CCOC)CC4)cc3)nc3[nH]cnc23)c1` [Compound I-65a, N-(3-(2-(4-(4-(2-methoxyethyl)piperazin-1-yl)phenylamino)-9H-purin-6-yloxy)phenyl)acrylamide], at most 10 nM.
In the case of `C=CC(=O)Nc1cccc(Oc2nc(Nc3ccc(N[C@H]4CCN(C(C)=O)C4)cc3)nc3[nH]ccc23)c1` [Compound I-61a, (S)—N-(3-(2-(4-(1-acetylpyrrolidin-3-ylamino)phenylamino)-7H-pyrrolo[2,3-d]pyrimidin-4-yloxy)phenyl)acrylamide], in assay [1], the IC50 was at most 10 nM.
The same measure, in the same setting: in the case of `C=CC(=O)Nc1cccc(Oc2nc(Nc3ccc4c(c3)CS(=O)(=O)N4)ncc2OC)c1` [Compound I-70a, N-(3-((2-((2,2-dioxido-1,3-dihydrobenzo[c]isothiazol-5-yl)amino)-5-methoxypyrimidin-4-yl)oxy)phenyl)acrylamide] it was 10 to 100 nM; in that of `C=CC(=O)Nc1cccc(Oc2nc(Nc3ccc(N(C)[C@H]4CCN(CCOC)C4)cc3OC)ncc2OC)c1` [Compound I-55a, (S)—N-(3-(5-methoxy-2-(2-methoxy-4-((1-(2-methoxyethyl)pyrrolidin-3-yl)(methyl)amino)phenylamino)pyrimidin-4-yloxy)phenyl)acrylamide], at least 100 nM; in that of `C=CC(=O)Nc1cccc(Oc2nc(Nc3ccc(OCCOC)c(F)c3)nc3[nH]ccc23)c1` [Compound I-24a, N-(3-(2-(3-fluoro-4-(2-methoxyethoxy)phenylamino)-7H-pyrrolo[2,3-d]pyrimidin-4-yloxy)phenyl)acrylamide], 10 to 100 nM.

Values taken from patent US9920074B2 (ACEA BIOSCIENCES INC., priority 2013, dated 2018).
